Results taken from patent publication US20050192279A1, “Pyridazinones as antagonists of alpha4 integrins” (priority 2004, published 2005).
Values joined by “and” are separate entries in the source; they are usually repeats but may differ in a detail not shown here. Equal values may be shown once.

What was measured:
TNBS induced colitis = assay: Trinitrobenzenesulfonic acid (TNBS) Induced Colitis, rats; assay type: in vivo, Male Wistar rats; details: rat
Text: In Vivo Model: Trinitrobenzenesulfonic acid (TNBS) Induced Colitis The TNBS model of experimental colitis (Bobin-Dubigeon, C., Collin, X., Grimaud, N., Robert, J-M., Guillaume Le Baut, G., and Petit, J-Y. Effects of tumour necrosis factor-a synthesis inhibitors on rat trinitrobenzene sulphonic acid-induced chronic colitis. Eur. J. […] These symptomatic signs in the above—mentioned models are similar to what occur in human colitis. Male Wistar rats (200-250 g) are inoculated with 500 microliters of a solution of 10 to 20 mg of TNBS in 30% ethanol delivered intracolonically via catheter or ball-tipped gavage needle to the 8th cm from the anus. When Balb/c female mice (8-12 weeks of age) were used, the inoculation volume was 50 microliters containing 2-3 mg of TNBS in 30% ethanol delivered intracolonically via catheter or ball-tipped gavage needle to the 4th cm from the anus. During the ensuing 7 days, test animals were administered a preparation of an experimental compound. This material may be administered orally, subcutaenously or intraperitoneally, once or twice daily. At the end of this period, the animals were euthanized and their colons were collected for further analysis. Among the parameters analyzed were the length of the colon starting from the anus to the top of the cecum, the weight of the colon, the consistency of any stools found within the colon, the presence or absence of intraperitoneal adhesions on the serosal surfacr of the intestin, and the gross macroscopic appearance of the colon. […] In rats, the distal colon between the 5th and the 8th centimeter is dissected and placed in 10% neutral buffered formalin for later histological analysis. In mice, the 1st to the 4th cm was collected for histological analyses. For the following parameters—colon length, colon weight, stool consistency and appearance and macroscopic damage—a scoring system was used to describe the changes. The four scores for each animal were added to provide a Total Score. […] For the presence of blood in stool, one point was added to scores <3. […] Histological analyses of tissues consisted of staining paraffin-embedded tissue sections with hematoxylin-eosin dye. Epithelial damage scores were determined as the fraction of the tissue section showing damaged epithelium. […] Statistic analyses for these experiments performed with Graphpad Prism 4.0, using ANOVA, with Dunnets or Bonferroni's multiple comparisons test.

DSS induced colitis = assay: Dextran Sulfate Sodium (DSS) Induced Colitis; assay type: in vivo, Balb/c female mice and C57Black/6 mice
Text: In Vivo Model for Colitis: Dextran Sulfate Sodium (DSS) Induced Colitis Inflammatory bowel diseases such as ulcerative colitis and Crohn's disease are characterized by diminished intestinal barrier function, apparent inflammatory damage that may include erosive loss of intestinal mucosa, and inflammatory infiltrates in the mucosa and submucosa. […] Among the many possible chemicals used are dextran sulfate sodium (DSS) and trinitrobenzene sulfonic acid (TNBS). The dextran sulfate sodium model of experimental colitis is characterized by a shrinkage of the colon's length, macrosopic inflammatory damage, diarrhea, a discontinuous pattern of mucosal epithelial damage in the distal colon with infiltration of inflammatory cells that include macrophages and neutrophils into the mucosa and submucosa (Blumberg, R. S., Saubermann, L. J., and Strober, W. Animal models of mucosal inflammation and their relation to human inflammatory bowel disease. Current Opinion in Immunology, 11: 648-656, 1999; […]., and Nakaya, R. A novel method of induction of reliable experimental acute and chronic colitis in mice. […] Cooper, […]., and […]. Clinicopathologic study of dextran sulfate sodium experimental murine colitis. Lab Invest., 69: 238-249, 1993; […]., Bajaj-Elliott, M., MacDonald, […]., and Buchler, M. W. Characterization of acute murine dextran sodium sulphate colitis: Cytokine profile and dose dependency. Digestion, 62: 240-248, 2000; […]., Husband, A. J., and Doe, W. F. The inflammatory infiltrate in the acute stage of the dextran sulphate sodium induced colitis: B cell response differs depending on the percentage of DSS used to induce it. BMC Clinical Pathology, 1: 3-13, 2001; and Diaz-Granados, Howe, K., Lu, J, and […]. Dextran sulfate sodium-induced colonic histopathology, but not altered epithelial ion transport, is reduced by inhibition of phosphodiesterase activity. Amer. J. Pathology, 156: 2169-2177, 2000). Balb/c female mice and […]/6 mice were used in these studies. […] When […]/6 mice were used, a solution of tap water containing 4% DSS was used. During the ensuing 7-day period, test animals were administered a preparation of an experimental compound. This material may be administered orally or intraperitoneally or subcutaneously, once or twice daily. At the end of this period, the animals were euthanized and their colons were collected for further analysis. Among the parameters analyzed were the length of the colon starting from the anus to the top of the cecum, the consistency of any stools found within the colon, and the gross macroscopic appearance of the colon. The distal colon between the 1st and the 4th centimeter was removed and placed in 10% neutral buffered formalin for later histological analysis. For the following parameters, colon length, stool consistency and appearance, and macroscopic damage a scoring system is used to describe the changes. […] Thus, […] Histological analyses of tissues consisted of staining paraffin-embedded tissue sections with hematoxylin-eosin dye. Epithelial damage scores were determined as the fraction of the tissue section showing damaged epithelium. […] Statistical analysis performed in Graphpad Prism 4.0 using ANOVA with Dunnet's or Bonferroni's multiple comparison's test.

circulating leukocytes = assay: In Vivo Model for Leukocytosis; parameters: species or system Balb/c mice; details: bled 1-1.5 h after administration
Text: In Vivo Model for Leukocytosis
Leukocytosis is the increase in circulating white blood cells (leukocytes). This can be brought about by preventing leukocyte binding to counter-receptor adhesion molecules expressed on high endothelial venules. This cell adhesion occurs between immunoglobulin superfamily molecules and integrins. Relevant examples of these paired interactions include […] Adhesion Molecule-1 and AlphaL Beta2 integrin, Vascular Cell Adhesion Molecule-1 and α4β1 integrin, and Mucosal Addressin Cell Adhesion Molecule-1 and α4β7 integrin, respectively.
In this model, a compound that antagonizes these leukocyte-endothelial interactions will cause an increase in circulating leukocytes, defined as leukocytosis, as measured at 1-1.5 h post-administration. This leukocytosis is indicative that normal lymphocyte or leukocyte emigration from the peripheral circulation was prevented. Similar emigration of cells out of the circulation into inflamed tissues is responsible for the progression and maintainance of the inflammatory state. Leukocytosis is an indication that lymphocyte and leukocyte extravasation is prevented, and is predictive of general anti-inflammatory activity.
One week prior to being tested, 7-10 week old female Balb/c mice, n=8 per group, were bled and randomized according to leukocyte counts. One week later, the mice were adminstered test compound orally or subcutaneously and then bled 1-1.5 h after drug administration, approximately 1 h after the peak blood concentration of the compound occurred. Whole blood, 250-350 microliters, was collected from each mouse into potassium-EDTA serum collection tubes (Becton-Dickenson) and mixed to prevent clotting.
Cell counts and differential counts on the whole blood preparation were performed using an Advia 120 Hematology System (Bayer Diagnostics). Cell counts as total leukocytes and as total lympohcytes were made and compared to counts made from mice dosed with vehicle only. Data were reported as percent of vehicle control for lymphocyte counts and total leukocyte counts.
Statistical analyses were performed using ANOVA with Dunnet's multiple comparison test.

[1] = test system: eosinophil peroxidase levels in ear punches; assay: PMA-Induced Inflammation in Mouse Ear Skin and Measurement of Eosinophil Peroxidase; assay type: in vivo, BALB/C mice; details: total dose 5 mg/kg po bid; ear punches 24 h after PMA; 5 mg/kg
Protocol: Phorbol 12-Myristate 13-Acetate (PMA)-Induced Inflammation in Mouse Ear Skin and Measurement of Eosinophil Peroxidase
Phorbol 12-myristate 13-acetate (PMA) when applied to skin, generates a vigorous recruitment of immune cells to the site of application. Over a 24 hour period, there is accumulation of fluid and cells to the inflamed site, and thus is a general indicator of an inflammatory response. Among the recruited cells are eosinophils and neutrophils. Eosinophils can migrate into an inflamed or infected tissue via alpha 4 beta 1 integrin interactions with vascular cell adesion molecule-1 (VCAM-1) counter-receptors on vascular endothelial cells, and via alpha 4 beta 7 integrin to mucosal addressin cellular adhesion molecule on vascular endothelial cells in the gastrointestinal tract and mesenteric system. The recruited esoinophils can be quantified by measuring the presence of eosinophil peroxidase in a sample of the homogenized tissue.
Female BALB/C mice are ordered at 6 weeks of age and 16-18 grams from Charles River were used between 6-10 weeks of age. The animals were randomly assigned to groups of 10 (5/box) and housed in groups in plastic cages in a room with 12 h light-dark cycle and controlled temperature and humidity. They received food and water ad libitum.
Phorbol 12-myristate 13-acetate (PMA) was dissolved as 5 mg per mL stock in dimethyl sulfoxide (DMSO) and stored frozen as 20 microliter aliquots. For application to mouse ears, each aliquot was diluted in 2 mL with acetone.
The right ear of each mouse was treated topically with 20 microliters of acetone solution (10 microliters to each side of the ear) containing either 1 microgram of phorbol 12-myristate 13-acetate (PMA) or acetone alone.
Drugs that were tested orally were administered at −1 and +3 hours relative to PMA application.
Mice were sacrificed 24 h after PMA application. The right ear was punched with a 6 mm tissue punch and the tissue was placed in a tube on dry ice and kept frozen until extraction.
One tablet of phosphate citrate buffer was dissolved with urea hydrogen peroxide in 100 ml of water in which one tablet containing 60 mg of o-phenylenediaminedihydrochloride was added.
Ear tissue samples were homogenized in 2 ml of HTAB for 15 sec at speed 5.5 with a Polytron (large head) (Brinkman Instruments). The homogenate was stored at −20° C. until assayed. […]
Samples were typically tested at either a 1:2 or 1:4 dilution made with HTAB. […] Absorbance was read at 490 nm for the specific with subtraction of a 650 nm noise signal using a Thermomax 96-well spectrophotmetric plate reader (Molecular Devices). […]
The inhibition of PMA-induced ear edema was measured by eosinophil peroxidase levels in ear punches. […]

[2] = 30 mg/kg po bid, C57 Black/6 mice
[3] = 60 mg/kg po bid, C57 Black/6 mice

Compound | % Inhibition of Epithelial Damage Score (TNBS induced colitis; 30 mg/kg po bid) | % Inhibition of Total Macroscopic Score (TNBS induced colitis; 30 mg/kg po bid) | % Inhibition of Epithelial Damage Score (TNBS induced colitis; 60 mg/kg po bid) | % Inhibition of Total Macroscopic Score (TNBS induced colitis; 60 mg/kg po bid) | % Inhibition of Epithelial Damage Score (DSS induced colitis; [2]) | % Inhibition of Total Macroscopic Score (DSS induced colitis; [2]) | % Inhibition of Total Macroscopic Score (DSS induced colitis; 30 mg/kg po bid, balb/c mice) | % Inhibition of Epithelial Damage Score (DSS induced colitis; [3]) | % Inhibition of Total Macroscopic Score (DSS induced colitis; [3]) | % Inhibition of Epithelial Damage Score (DSS induced colitis; 60 mg/kg po bid, balb/c mice) | % Inhibition of Total Macroscopic Score (DSS induced colitis; 60 mg/kg po bid, balb/c mice) | Lymphoycte Counts % of Vehicle Control (circulating leukocytes; 3 mg/kg po) | Total Leukocyte Count % of Vehicle Control (circulating leukocytes; 3 mg/kg po) | Lymphoycte Counts % of Vehicle Control (circulating leukocytes; 10 mg/kg po) | Total Leukocyte Count % of Vehicle Control (circulating leukocytes; 10 mg/kg po) | Lymphoycte Counts % of Vehicle Control (circulating leukocytes; 30 mg/kg po) | Total Leukocyte Count % of Vehicle Control (circulating leukocytes; 30 mg/kg po) | % Inh. of Eosinophil Peroxidase [1]
COc1cnn(CCO)c(=O)c1-c1ccc(C[C@H](NC(=O)OC(C)(C)C)C(=O)OCCO)cc1 [Cpd 231] | 24.69% | 19.33% | 38.64% | 5.455% | 23.91% | 13.4% | 43.8% | 53.9% | 23.4% | 36.5% | 47.7% | 114.5% | 110.7% | 94.0% | 98.0% | 88.7% | 86.9% | –
C[C@@H]1C[C@H]2[C@@H]3CCC4=CC(=O)C=C[C@]4(C)[C@@]3(F)[C@@H](O)C[C@]2(C)[C@@]1(O)C(=O)CO [dexamethasone] | – | – | – | – | – | – | – | – | – | – | – | – | – | – | – | – | – | 83.6% and 109.0%
